# ± gives the standard deviation of the reports.
row,Structure (SMILES),glass transition temperature
1,*Oc1ccc(C2(c3ccc(OC(*)=O)c(Cl)c3)CCCCC2)cc1Cl (repeat unit),179.00 °C
2,*CCC[Si](*)(C)c1cccc(C)c1 (repeat unit),-25.00 °C
3,*Cc1ccc(C[n+]2ccc(-c3cc[n+](*)cc3)cc2)cc1 (repeat unit),95.00 °C
4,*CCCCCCCCCCCC(=O)Oc1ccc(C(C)(C)c2ccc(C(C)(C)c3ccc(OC(=O)c4ccc5c(c4)C(=O)N(*)C5=O)cc3)cc2)cc1 (repeat unit),97.00 °C
5,*CC(*)C(=O)OCCSCC#N (repeat unit),-24.00 °C
6,*Oc1c(C(C)C)cc(C(=O)c2cccc(C(=O)c3ccc(*)cc3)c2)cc1C(C)C (repeat unit),132.00 °C
7,*Oc1ccc(C2(c3ccc(OC(*)=O)cc3)CC3CCC2C3)cc1 (repeat unit),235.00 °C
8,*Oc1cc(OC(=O)c2ccc(OCCC)cc2)c(OC(=O)CCCC(*)=O)cc1OC(=O)c1ccc(OCCC)cc1 (repeat unit),72.00 °C
9,*Oc1ccc(C(C)(C)c2ccc(Oc3nc(*)nc(Cl)n3)cc2)cc1 (repeat unit),80.00 °C
10,*Nc1ccc(C(C)(C)c2ccc(NC(=O)c3cc(NC(=O)c4ccccc4)cc(C(*)=O)c3)cc2)cc1 (repeat unit),303.50 °C
11,*CC(*)(C)C(=O)OCCCCCCCCOc1ccc(C(=O)Oc2ccc(C(=O)/C=C/c3c(C)c4ccccc4n3CCCC)cc2)cc1 (repeat unit),69.00 °C
12,*N(C)[Si](*)(C)C=C (repeat unit),-20.00 °C
13,*CCCCCCOP(=O)(/N=N/c1ccc(C(=O)c2ccc(/N=N/P(=O)(O*)OC)cc2)cc1)OC (repeat unit),31.00 °C
14,*Cc1ccc(CSSS*)cc1 (repeat unit),8.00 °C
15,*c1ccc(Oc2ccccc2Oc2ccc(N3C(=O)c4ccc(Oc5ccc6c(c5)C(=O)N(*)C6=O)cc4C3=O)cc2C(F)(F)F)c(C(F)(F)F)c1 (repeat unit),223.00 °C
16,*CC(CCCCCCOc1ccc(/N=N/c2ccc(OC)cc2)cc1)COC(=O)CCCCC(=O)O* (repeat unit),22.00 °C

row,Structure (SMILES),glass transition temperature
1,*Cc1ccccc1C[n+]1ccc(-c2cc[n+](*)cc2)cc1 (repeat unit),70.50 °C
2,*CCOc1ccc(S(=O)(=O)c2ccc(OCCOP(=O)(O*)Oc3ccc(C)cc3)cc2)cc1 (repeat unit),46.00 °C
3,*Nc1ccc(NC(=O)c2cccc(C(=O)c3ccc(C(*)=O)cc3)c2)cc1 (repeat unit),257.50 °C
4,*Oc1ccc(Cc2ccc(Cc3ccc(OC(*)=O)cc3)cc2)cc1 (repeat unit),79.50 °C
5,*Oc1ccc(-c2ccc(Oc3cccc(*)n3)cc2)cc1 (repeat unit),119.00 °C
6,*CC(C)(C)C(=O)O* (repeat unit),-12.00 °C
7,*C(=O)c1ccc2c(c1)C(=O)N(c1ccc(Oc3ccc(N4C(=O)c5ccc(*)cc5C4=O)cc3)cc1)C2=O (repeat unit),290.00 ± 28 °C
8,*C(=O)c1cc(C(=O)c2ccc3c(c2)C(=O)N(c2cccc(N4C(=O)c5ccc(*)cc5C4=O)c2)C3=O)cc(-c2ccccc2)c1 (repeat unit),266.50 °C
9,*O[Si](*)(C)C1CC2CC1C1C3CC(CC3C(=O)OC(C)(C)C)C21 (repeat unit),90.00 °C
10,*CCCCCCOC(=O)OCCCCCCOC(=O)OCCCCCCn1c(=O)c2cc3c(=O)n(*)c(=O)c3cc2c1=O (repeat unit),17.00 °C
11,*C1C(=O)N(CCCCCOc2ccc(-c3ccc(C#N)cc3)cc2)C(=O)C1* (repeat unit),75.00 °C
12,*=NP(=NP(=NC(=*)Oc1ccc(C(C)(C)c2ccccc2)cc1)(Oc1ccc(C(C)(C)c2ccccc2)cc1)Oc1ccc(C(C)(C)c2ccccc2)cc1)(Oc1ccc(C(C)(C)c2ccccc2)cc1)Oc1ccc(C(C)(C)c2ccccc2)cc1 (repeat unit),55.00 °C
13,*C(=O)Nc1ccc(C2(c3ccc(N4C(=O)c5ccc(*)cc5C4=O)cc3)CCC(C)CC2)cc1 (repeat unit),322.00 °C
14,*OC(=O)C(C)NC(=O)CCCCCCC(=O)NC(C)C(=O)OC1COC2C(*)COC12 (repeat unit),57.00 °C
15,*c1ccc2c(c1)C(=O)N(c1ccc(-c3ccc(N4C(=O)c5ccc(C(*)(C(F)(F)F)C(F)(F)F)cc5C4=O)c(OC(=O)/C=C/c4ccccc4)c3)cc1OC(=O)/C=C/c1ccccc1)C2=O (repeat unit),181.00 °C

# The remaining lines, values ahead:
row,glass transition temperature,Structure (SMILES)
1,178.00 °C,*=Nc1cccc(/N=C(/C=C/C(=*)c2ccccc2)c2ccccc2)c1 (repeat unit)
2,130.00 °C,*c1ccc2c(c1)Sc1cc(-c3sc(/C=C/C4=CC(=C(C#N)C#N)C=C(/C=C/c5sc(*)c(CCCCCC)c5CCCCCC)O4)c(CCCCCC)c3CCCCCC)ccc1N2CCCCCC (repeat unit)
3,91.00 °C,*CC(CO*)(CS(=O)(=O)C(C)C)CS(=O)(=O)C(C)C (repeat unit)
4,63.00 °C,*/C=C(\C#N)C(=O)OCCCCCCOC(=O)/C(C#N)=C/c1ccc2c(c1)c1cc(*)ccc1n2CCCCCCCCCCCn1c2ccccc2c2ccccc21 (repeat unit)
5,252.00 °C,*C(=O)NNC(=O)c1ccc([Si](c2ccccc2)(c2ccccc2)c2ccc(C(=O)NNC(=O)c3ccc(*)o3)cc2)cc1 (repeat unit)
6,56.00 °C,*Oc1ccc(OC(=O)c2cc(OCCCCCCOCC3CCCN3c3ccc([N+](=O)[O-])cc3)c(C(*)=O)cc2OCCCCCCOCC2CCCN2c2ccc([N+](=O)[O-])cc2)cc1 (repeat unit)
7,35.00 °C,*CC(*)(C)C(=O)Nc1ccc(C(=O)/C=C/c2ccc(OC)cc2)cc1 (repeat unit)
8,30.00 °C,*Oc1ccc(OC(=O)c2cc(OCCCCCCCCCCOCC3CCCN3c3ccc([N+](=O)[O-])cc3)c(C(*)=O)cc2OCCCCCCCCCCOCC2CCCN2c2ccc([N+](=O)[O-])cc2)cc1 (repeat unit)
9,247.60 °C,*c1cc(C(=O)NCCCCCCCCCCCCCC)cc(N2C(=O)c3ccc(-c4ccc5c(c4)C(=O)N(*)C5=O)cc3C2=O)c1 (repeat unit)
10,187.00 °C,*CCCCCC(=O)Nc1ccc(Cc2ccc(NC(=O)CCCCCN3C(=O)c4ccc(C(=O)c5ccc6c(c5)C(=O)N(*)C6=O)cc4C3=O)cc2)cc1 (repeat unit)
11,167.00 °C,*CCOC(=O)c1ccc(/C(C#N)=C(\c2ccc(OC)cc2)N2CCC(*)CC2)cc1 (repeat unit)
12,110.00 °C,*CCCCCCCCNC(=O)c1cccc(C(=O)N*)c1 (repeat unit)
13,231.00 °C,*Oc1ccc(Oc2ccc(C(=O)Nc3ccc(Oc4ccc(S(=O)(=O)c5ccc(Oc6ccc(NC(=O)c7ccc(*)cc7)cc6)cc5)cc4)cc3)cc2)cc1-c1ccccc1 (repeat unit)
14,272.00 °C,*c1ccc2c(c1)C(=O)N(c1ccc(NC(=S)/N=C/c3ccc(Cl)c(N4C(=O)c5ccc(C(*)(C(F)(F)F)C(F)(F)F)cc5C4=O)c3)cc1)C2=O (repeat unit)
15,118.00 °C,*CC(*)(C)C(=O)Oc1ccc(C(=O)c2ccccc2)cc1 (repeat unit)
